Data on two compounds can be found in PubChem BioAssay (NCI).

Among the test systems are SNB-78 CNS; M19-MEL melanoma; DLD-1 colon; LXFL 529 NSCLC; KM20L2 colon; HOP-18 NSCLC; DMS 114 small cell lung; XF 498 CNS; SN12K1 renal; P388/ADR leukemia; P388 leukemia.
Assay in all cases: NCI tumour cell line growth inhibition, 48 h

Molecules are shown by their SMILES. Several values for one entry are separate records, joined by “and”; a condition that tells them apart may be missing. Equal values may be shown once.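 Interpolation was linear, between the two tested concentrations surrounding the appropriate level; five concentrations were tested over 48 hours in 96-well plates. GI50 = concentration required for 50% inhibition of growth. TGI: concentration producing complete growth inhibition.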

In the case of `C=C(CN(C)C)C(=O)c1ccccc1OC`, the TGI in the assay on SNB-78 CNS amounted to 62.8 µM; in the assay with M19-MEL melanoma, 32400 nM; in the assay with DLD-1 colon, 14.2 µM; in the assay on LXFL 529 NSCLC it was 11.5 µM; in the assay with KM20L2 colon, 50.8 µM; in the assay on HOP-18 NSCLC it was 20.2 µM. Also, the TGI with DMS 114 small cell lung stood at 42500 nM; in the assay on XF 498 CNS, 32300 nM.
In the case of `CC[C@@]1(O)CC(OC2CC(N3CCOCC3)C(O)C(C)O2)c2c(O)c3c(c(O)c2[C@H]1O)C(=O)c1cccc(O)c1C3=O` (stereo partly specified), the GI50 is 640 nM in the assay with SNB-78 CNS; 71.6 nM with M19-MEL melanoma; 32.4 nM in the assay with DLD-1 colon; 102 nM in the assay on KM20L2 colon; 15.3 nM and 10.2 nM with SN12K1 renal; 4.4 nM in the assay on P388/ADR leukemia. Moreover, the GI50 with DMS 114 small cell lung was 52.5 nM; in the assay with P388 leukemia, 0.179 pM; in the assay on XF 498 CNS it was 34.1 nM. Further, the TGI in the assay on SNB-78 CNS is 2.83 µM and 24.3 µM; in the assay with M19-MEL melanoma, 981 nM and 2140 nM; in the assay on DLD-1 colon it was 2.78 µM and 3.2 µM; with KM20L2 colon, 3.84 µM and 1.86 µM; with SN12K1 renal, 403 nM and 297 nM; in the assay on P388/ADR leukemia, 2940 nM and 770 nM. Moreover, the TGI with DMS 114 small cell lung is 968 nM and 1080 nM; with P388 leukemia it was 1080 nM and 799 nM; in the assay with XF 498 CNS it was 278 nM and 362 nM.
